Values quoted from earlier work as cited in publication PMC7465391, “1,4-Disubstituted 1,2,3-Triazoles as Amide Bond Surrogates for the Stabilisation of Linear Peptides with Biological Activity” (Molecules, 2020).
Like-named read-outs stand apart in the source and are kept apart here.

Key:
[1] = biological target: cathepsin L
Source text: (§1) Table 7 Sequences of CatS1–2 and CatK1–2 and their reported biological properties. | column: Ki for CatL, pH 5.5 [nM] ^b || The Lalmanach group explored the stabilisation of peptidic inhibitors for cathepsin K and S [99]. These two proteins are cysteine proteases normally present in lysosomes and share a high homology. When found in the extracellular matrix, these enzymes are often overexpressed and dysregulated, making them innovative targets for new therapies for a range of medical conditions. Cathepsin K is considered as a target involved in osteoporosis whereas cathepsin S has been identified to play a role in autoimmune diseases and neuropathic pain [100, 101]. One strategy to identify inhibitors for prot ... || Another set of investigated peptidomimetics was based on a bradykinin-derived substrate, previously reported to be degraded by cathepsin K [103].

[2] = biological target: cathepsin K
Source text: as §1, with “CatK,” for “CatL,”

Substance | Ki ([1]; pH 5.5, 37 °C, substrate Z-Phe-Arg-AMC, mean ± SEM of three experiments, read-out: Ki for CatL, pH 5.5) | Ki ([2]; reversible inhibition, read-out: Ki cathepsin K) | Ki ([1]; reversible inhibition, read-out: Ki cathepsin L) | Ki ([2]; pH 5.5, 37 °C, substrate Z-Phe-Arg-AMC, mean ± SEM of three experiments, read-out: Ki for CatK, pH 5.5)
Abz-Arg-Pro-Pro-GlyΨ[Tz]Phe-Ser-Pro-Phe-Arg-Tyr(3-NO2)-NH2 [CatK1, triazolo-peptidomimetic of a bradykinin-derived cathepsin K substrate] | 22 µM | 0.8 µM | – | –
Ac-Gly-Arg-Trp-His-Pro-Met-GlyΨ[Tz]Ala-Pro-Trp-Glu-D-Ala-D-Arg-NH2 [CatS1] | – | – | 30 µM | 10 µM
